Assay: solubility in aqueous media
Format: physicochemical
Details: qualitative statement

Structure (SMILES) | solubility in aqueous media
O=C(Nc1ccccc1F)NC1N=C(c2ccccc2)c2ccccc2NC1=O (centres unmarked) [RSV604 free base, 1-(2-Fluoro-phenyl)-3-(2-oxo-5-phenyl-2,3-dihydro-1H-benzo[e][1,4]diazepin-3-yl)-urea] | low solubility
O.O=C(Nc1ccccc1F)NC1N=C(c2ccccc2)c2ccccc2NC1=O.O=S(=O)(O)c1ccccc1 (centres unmarked) [RSV604 Besylate Monohydrate Salt, 1-(2-Fluoro-phenyl)-3-(2-oxo-5-phenyl-2,3-dihydro-1H-benzo[e][1,4]diazepin-3-yl)-urea besylate monohydrate] | particularly good solubility properties
